From US7012061B1 (New York University, priority 1998, dated 2006)
Where “and” joins values, the source holds several entries; their conditions need not be identical. Identical values can stand only once. Like-named read-outs stand apart in the source and are kept apart here.

B1: IFN-γ: Recombinant mouse IFN-γ purchased from Genzyme (protein, UniProt P01580 23-155, looked up)
Interferon gamma: HGTVIESLESLNNYFNSSGIDVEEKSLFLDIWRNWQKDGDMKILQSQIISFYLRLFEVLKDNQAISNNISVIESHLITTFFSNSKAKKDAFMSIAKFEVNNPQVQRQAFNELIRVVHQLLPESSLRKRKRSRC
B2: IL-12: Murine rIL-12 provided by Genetics Institute (protein, UniProt P43431 23-215; P43432 23-335, looked up)
Interleukin-12 subunit alpha: RVIPVSGPARCLSQSRNLLKTTDDMVKTAREKLKHYSCTAEDIDHEDITRDQTSTLKTCLPLELHKNESCLATRETSSTTRGSCLPPQKTSLMMTLCLGSIYEDLKMYQTEFQAINAALQNHNHQQIILDKGMLVAIDELMQSLNHNGETLRQKPPVGEADPYRVKMKLCILLHAFSTRVVTINRVMGYLSSA
Interleukin-12 subunit beta: MWELEKDVYVVEVDWTPDAPGETVNLTCDTPEEDDITWTSDQRHGVIGSGKTLTITVKEFLDAGQYTCHKGGETLSHSHLLLHKKENGIWSTEILKNFKNKTFLKCEAPNYSGRFTCSWLVQRNMDLKFNIKSSSSSPDSRAVTCGMASLSAEKVTLDQRDYEKYSVSCQEDVTCPTAEETLPIELALEARQQNKYENYSTSFFIRDIIKPDPPKNLQMKPLKNSQVEVSWEYPDSWSTPHSYFSLKFFVRIQRKKEKMKETEEGCNQKGAFLVEKTSTEVQCKGGNVCVQAQDRYYNSSCSKWACVPCRVRS

What was measured:
[1] = tested on: aortic endothelial cells; details: Clark et al, 1988; cited from earlier work
[2] = tested on: HSV-1; format: cell-based, Herpes Simplex virus-1
[3] = tested on: VSV; format: cell-based, Vesicular stomatitis virus; details: C6 Glia, moi = 1, 8 h pi
[4] = tested on: Influenza virus A/WSN/33; format: cell-based
[5] = tested on: VSV; format: cell-based, Vesicular stomatitis virus; details: for VSV in supernatant: NB41A3, 8 h pi; for Effect on IFN-γ-induced inhibition of VSV replication: NB41A3 cells
[6] = tested on: VSV; format: cell-based, Vesicular stomatitis virus; details: RAW, inhibitors, moi = 1, 8 h pi
[7] = tested on: Sindbis AR339 virus; format: cell-based
[8] = tested on: VSV; format: in vivo, mice
[9] = target: type I NOS (Homo sapiens, UniProt P29475); details: Moore et al, 1993; cited from earlier work
[10] = tested on: NOS activity in C6 rat glioma cells; test: NO2 release into culture medium (Griess reagent), C6 cells; format: cell-based; details: astrocytes (C6), co-culture with IFN-γ
Procedure: (§1) FIGS. 2A–2C show the kinetics of the IFN-γ augmented NOS activity in NB41A3 neuroblastoma, C6 rat glioma and RAW cells. Aliquots of supernatant were removed from triplicate wells of 2×10^5 NB41A3 (FIG. 2A), RAW (FIG. 2B) or C6 (FIG. 2C) cells, cultured with medium or with 5 ng IFN-γ for up to 72 hours. The medium was assayed for the presence of NO2 using the Griess reagent, and expressed as nM NO2 ±S.D. present.
(§2) The concentration of NO in culture supernatants was determined by assaying its stable end-product, NO2 (Bredt et al, 1989). Briefly, equal volumes of experimental sample and Griess reagent (1% sulfanilamidide, 0.1% N-1-naphthylethylene-diamine, 5H3PO4) (Sigma) were incubated at room temperature for ten minutes. The reaction produces a pink color, which was quantitated at 540 nm against standards in the same buffer, using an automated plate reader (Bio-Tek, Inc., model EL309). The data is expressed as mM.

[11] = tested on: NOS activity in RAW cells; test: NO2 release into culture medium (Griess reagent), RAW cells; format: cell-based, murine; details: RAW macrophage line, incubation with 5 ng rIFNγ
Procedure: as §1, §2

[12] = tested on: NOS activity in NB41A3 neuroblastoma cells; test: NO2 release into culture medium (Griess reagent), NB41A3 cells; format: cell-based
Procedure: as §1, §2

[13] = tested on: VSV protein; format: cell-based, Vesicular stomatitis virus
[14] = tested on: MHC-I; parameters: species or system mice; key: − = no visual staining; + = minimal staining; ++ = moderate staining; +++ = strong staining; details: mouse, in vivo
[15] = tested on: IFN-R; parameters: species or system mice; key: − = no visual staining; + = minimal staining; ++ = moderate staining; +++ = strong staining; details: mouse, in vivo
[16] = tested on: VSV; parameters: species or system mice; key: − = no visual staining; + = minimal staining; ++ = moderate staining; +++ = strong staining; details: mouse, in vivo
[17] = tested on: IL-12; parameters: species or system mice; key: − = no visual staining; + = minimal staining; ++ = moderate staining; +++ = strong staining; details: mouse, in vivo
[18] = tested on: blood brain barrier; parameters: species or system mice; details: mouse, in vivo
[19] = tested on: MHC-II; parameters: species or system mice; key: − = no visual staining; + = minimal staining; ++ = moderate staining; +++ = strong staining; details: mouse, in vivo
[20] = parameters: species or system mice; details: mouse, in vivo
[21] = tested on: VSV; parameters: species or system mice; details: mouse, in vivo, ip
[22] = tested on: blood brain barrier; details: mouse, in vivo
[23] = tested on: VSV mRNA (N gene); format: cell-based, Vesicular stomatitis virus
[24] = IFN-γ 5 ng for 72 hours, inhibitors 400 mM
[25] = 5 μg IFN-γ for 72 hours prior to infection, inhibitors 400 mM, 8 hour infection, moi = 1
[26] = Media (no IFN-γ), inhibitors 400 mM, 8 hour infection, moi = 1
[27] = IFN-γ 5 ng for 72 hours, inhibitors 400 mM, moi = 1
[28] = Medium, inhibitors 400 mM, moi = 1
[29] = NMDA 500 mM for two minutes, inhibitors 400 mM, moi = 1

Chain of type I NOS (P29475 whole entry): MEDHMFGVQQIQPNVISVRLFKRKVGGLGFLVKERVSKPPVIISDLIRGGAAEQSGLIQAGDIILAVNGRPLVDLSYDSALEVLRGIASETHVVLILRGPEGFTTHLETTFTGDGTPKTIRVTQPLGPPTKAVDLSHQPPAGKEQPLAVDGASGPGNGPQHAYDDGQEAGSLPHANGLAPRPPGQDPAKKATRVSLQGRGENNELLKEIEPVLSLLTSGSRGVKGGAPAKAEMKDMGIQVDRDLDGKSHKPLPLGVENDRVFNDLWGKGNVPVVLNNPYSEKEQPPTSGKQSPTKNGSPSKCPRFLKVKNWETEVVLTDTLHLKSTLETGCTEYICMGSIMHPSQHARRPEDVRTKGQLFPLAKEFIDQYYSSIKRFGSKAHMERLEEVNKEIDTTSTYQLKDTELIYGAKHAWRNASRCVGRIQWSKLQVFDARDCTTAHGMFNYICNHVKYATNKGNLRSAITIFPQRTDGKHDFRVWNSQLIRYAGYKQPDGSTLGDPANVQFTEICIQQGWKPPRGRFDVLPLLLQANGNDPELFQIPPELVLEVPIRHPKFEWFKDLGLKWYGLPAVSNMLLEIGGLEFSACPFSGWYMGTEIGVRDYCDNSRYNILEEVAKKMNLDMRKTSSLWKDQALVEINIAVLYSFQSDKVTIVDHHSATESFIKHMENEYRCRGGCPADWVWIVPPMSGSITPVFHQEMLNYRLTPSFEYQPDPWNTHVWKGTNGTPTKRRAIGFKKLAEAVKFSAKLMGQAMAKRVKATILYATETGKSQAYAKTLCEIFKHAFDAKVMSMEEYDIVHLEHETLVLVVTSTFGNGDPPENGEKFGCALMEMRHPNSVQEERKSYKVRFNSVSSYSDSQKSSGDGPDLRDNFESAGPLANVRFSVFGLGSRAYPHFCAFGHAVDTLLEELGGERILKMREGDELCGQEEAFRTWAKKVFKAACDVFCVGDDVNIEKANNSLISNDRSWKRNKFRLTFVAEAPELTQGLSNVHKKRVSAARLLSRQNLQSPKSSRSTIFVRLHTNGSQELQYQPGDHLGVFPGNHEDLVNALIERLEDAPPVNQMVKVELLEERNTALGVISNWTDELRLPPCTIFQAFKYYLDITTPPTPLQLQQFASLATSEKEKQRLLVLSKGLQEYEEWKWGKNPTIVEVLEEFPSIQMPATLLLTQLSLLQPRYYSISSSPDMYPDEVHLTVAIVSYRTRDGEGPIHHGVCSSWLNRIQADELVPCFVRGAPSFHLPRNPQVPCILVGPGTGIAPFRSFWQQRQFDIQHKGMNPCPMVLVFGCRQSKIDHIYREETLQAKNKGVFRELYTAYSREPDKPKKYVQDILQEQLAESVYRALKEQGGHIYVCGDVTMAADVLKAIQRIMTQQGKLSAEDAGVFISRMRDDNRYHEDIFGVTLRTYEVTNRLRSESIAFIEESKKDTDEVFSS

| Molecule | HSV-1 infectious virus in supernatant [2] | VSV in supernatant [3, 24] | VSV in supernatant ([3]; Medium, inhibitors 400 mM) | VSV in supernatant [3] | Influenza infectious virus in supernatant [4, 25] | Influenza infectious virus in supernatant [4, 26] | VSV infectious virus in supernatant [5, 25] | VSV infectious virus in supernatant [5, 26] | VSV in supernatant [5, 27] | VSV in supernatant [5, 28] | VSV in supernatant [5, 29] | VSV in supernatant ([6]; IFN-γ 5 ng for 72 hours) | VSV in supernatant ([6]; Medium) | Sindbis infectious virus in supernatant [7] | also measured |
| --- | --- | --- | --- | --- | --- | --- | --- | --- | --- | --- | --- | --- | --- | --- | --- |
| NC1=NN(c2cccc(C(F)(F)F)c2)CC1 [BW 755c] |  |  |  |  |  |  |  |  |  |  |  |  |  |  | TNF-induced injury to aortic endothelial cells [1]: reduced |
| c1ccc2[nH]ncc2c1 [Indazole, indazole] | 5.140 ± .204 Log10 PFU and 3.175 ± .369 Log10 PFU | 4.48 ± .42 log10 PFU | 5.63 ± .19 log10 PFU | 4.48 ± .17 log10 PFU | 3.546 ± .212 Log10 PFU | 5.268 ± .350 Log10 PFU | 3.678 ± .174 Log10 PFU | 5.460 ± .408 Log10 PFU | 4.23 ± .29 log10 PFU | 5.58 ± .27 log10 PFU | 4.39 ± .36 log10 PFU | 4.49 ± .48 log10 PFU | 5.45 ± .21 log10 PFU | 5.053 ± .217 Log10 PFU and 3.752 ± .046 Log10 PFU |  |
| O=[N+]([O-])c1cccc2cn[nH]c12 [7-NI, 7-nitroindazole] | 5.159 ± .194 Log10 PFU and 5.170 ± .264 Log10 PFU | 4.54 ± .14 log10 PFU | 5.83 ± .14 log10 PFU | 4.59 ± .52 log10 PFU | 3.897 ± .089 Log10 PFU | 5.560 ± .489 Log10 PFU | 5.752 ± .331 Log10 PFU | 5.985 ± .428 Log10 PFU | 5.76 ± .10 log10 PFU | 5.76 ± .18 log10 PFU | 5.57 ± .15 log10 PFU | 4.84 ± .15 log10 PFU | 5.87 ± .08 log10 PFU | 4.935 ± .056 Log10 PFU and 3.897 ± .089 Log10 PFU | Effect on IFN-γ-induced inhibition of HSV-1 replication [2]: abrogation; Effect on IL-12-mediated enhanced clearance of VSV ([8]; BALB/c male mice, 50 mg/kg with 200 ng IL-12, four days post infection): abrogated; Geometric mean titer (GMT) of virus in brain homogenates compared to indazole-treated mice ([8]; BALB/c male mice, 50 mg/kg, four days post infection): ten-fold greater GMT; NOS isoform selectivity [9]: selective inhibitor of type I, but not types II or III NOS; Effect on IFN-γ-induced inhibition of VSV replication [5]: abrogation |
| CN[C@@H](CCCNC(=N)N)C(=O)O [L-NMA, L-N-Methyl Arginine] | 5.359 ± .225 Log10 PFU and 5.227 ± .208 Log10 PFU | 5.59 ± .26 log10 PFU | 5.85 ± .08 log10 PFU | 5.38 ± .37 log10 PFU | 3.767 ± .208 Log10 PFU | 5.810 ± .131 Log10 PFU | 5.761 ± .151 Log10 PFU | 5.948 ± .089 Log10 PFU | 5.77 ± .21 log10 PFU | 5.76 ± .25 log10 PFU | 5.59 ± .27 log10 PFU | 5.71 ± .09 log10 PFU | 5.83 ± .13 log10 PFU | 5.033 ± .238 Log10 PFU and 3.796 ± .084 Log10 PFU | Effect on IFN-γ-induced inhibition of HSV-1 replication [2]: abrogation; Effect on IFN-γ-induced inhibition of VSV replication [5]: abrogation |
| CN[C@H](CC(=O)O)C(=O)O [NMDA] |  |  |  | 5.54 ± .24 log10 PFU |  |  |  |  |  |  | 3.71 ± .20 log10 PFU |  |  |  |  |
| B1 | 3.467 ± .408 Log10 PFU |  |  |  |  |  |  |  |  |  |  |  |  | 3.318 ± .373 Log10 PFU | HSV-1 replication in NB41A3 cells [2]: significantly inhibited; Time to substantial levels of NO2 production [10]: 72 h; Time to plateau levels of NO2 production [11]: ≤ 24 h; Influenza infectious virus in supernatant [4]: 3.810 ± .130 Log10 PFU; Replication of influenza virus A/WSN/33 in NB41A3 cells [4]: significantly inhibited; VSV infectious virus in supernatant [5]: 3.752 ± .034 Log10 PFU; VSV replication in NB41A3 cells [5]: significantly inhibited; NO production by NB41A3 cells ([12]; IFN-γ treatment): significantly increased; Time to substantial levels of NO2 production ([12]; Neuroblastoma cells, co-culture with IFN-γ): 72 h; Replication of Sindbis virus in NB41A3 cells [7]: significantly inhibited |
| B2 |  |  |  |  |  |  |  |  |  |  |  |  |  |  | Difference in relative amounts of viral protein between treated and untreated samples [13]: approximately 80%; MHC-I relative intensity of staining [14]: ++ and + and +++ and −; IFN-R relative intensity of staining [15]: ++ and − and +; VSV relative intensity of staining [16]: +++ and ++ and + and −; Decrease of VSV titer in brain homogenates ([8]; mouse, in vivo): about 100 fold; IL-12 relative intensity of staining [17]: + and − and ++; Breakage of the BBB (Evans blue) [18]: did not show breakage of the BBB; MHC-II relative intensity of staining [19]: ++ and + and +++ and −; Time at which weight exceeded initial measurements [20]: ≤ 12 days after infection; Time at which weight exceeded initial measures [20]: ≤ 12 days after infection; Weight loss recovery from VSV infection [20]: rapidly recover from the weight loss; Number of survivors versus control medium [21]: greater; Survival and weight recovery from VSV infection [21]: not able to rescue; Survival rate from VSV infection versus control mice [21]: twice the survival rate; Integrity of the BBB (TEM, intercellular junction gaps) [22]: not enough to disrupt the integrity of the BBB; Difference in relative amounts of viral mRNA between treated and untreated samples [23]: approximately 20% |
